Earlier results in patent US7557115B2, “Compounds, compositions, and methods” (Cytokinetics, Inc., priority 2002, dated 2009).

System: A549 cells
Details: concentration that decreases rate of cell growth by fifty percent

Row | SMILES | GI50 [nM]
1 | CC(=O)O[C@H]1C(=O)[C@@]2(C)[C@H]([C@H](OC(=O)c3ccccc3)[C@]3(O)C[C@H](OC(=O)[C@H](O)[C@@H](NC(=O)c4ccccc4)c4ccccc4)C(C)=C1C3(C)C)[C@]1(OC(C)=O)CO[C@@H]1C[C@@H]2O [paclitaxel] | 4
2 | COc1cccc2c1C(=O)c1c(O)c3c(c(O)c1C2=O)C[C@@](O)(C(=O)CO)C[C@@H]3O[C@H]1C[C@H](N)[C@H](O)[C@H](C)O1 [doxorubicin] | 63
3 | O=c1[nH]cc(F)c(=O)[nH]1 [5-fluorouracil] | 1000
4 | NC(=O)NO [hydroxyurea] | 500000
